# Molecular target: recombinant human cGAS (Homo sapiens (Human), UniProt Q8N884)
# Assay: In vitro inhibition assay of cGAS activity (cGAMP production, RapidFire mass spectrometry)
# Format: biochemical
# Details: 10 nM recombinant human cGAS, 60 nM 75-bp dsDNA, ATP, GTP, room temperature 3 hours, read-out: IC50 (μM), In vitro inhibition assay for Compounds 1-94
# Description: Expression and Purification of Recombinant cGAS Protein: Insert cDNA encoding full-length of human cGAS into a modified bacterial expression vector containing an in-frame His6-tag. Induce the E. coli strain BL21(DE3) harboring the plasmid with 1 mM IPTG (Isopropyl β-D-1-thiogalactopyranoside) at 18° C. overnight. Purify the His6-tagged cGAS protein over HISpur Ni-NTA resin in the presence of benzonase and RNase followed by Superdex 200 size exclusion chromatography with storage buffer (50 mM Tris-HCl pH 7.5, 300 mM NaCl, 1 mM DTT, 10% glycerol).
# In vitro inhibition assay of cGAS activity: Add a 5 μL mixture containing 10 mM Tris-Cl pH 7.5, 50 mM NaCl, 5 mM MgCl2, 1 mM DTT, 0.01% Triton X-100, 60 nM 75-bp dsDNA, […], 50 μM GTP, 10 nM of recombinant human cGAS, and serial dilutions of a test compound in DMSO to a 384-well plate and incubate at room temperature for 3 hours. Quench the reaction by the addition of 100 μL of stop solution containing 0.1% formic acid and 0.1 μM internal standard (3′3′-difluoro cGAMP). Measure the amount of cGAMP produced by RapidFire 365 mass spectrometry and evaluate inhibitory effect of a compound by plotting percent specific inhibition of cGAMP production against log concentration of the test compound. Calculate IC50 values using a 4-parameter non-linear logistic equation (y=(S0+((SInf−S0)/(1+((qAC50/x)^nHill))))).
# recombinant human cGAS, sequence (Q8N884 whole entry): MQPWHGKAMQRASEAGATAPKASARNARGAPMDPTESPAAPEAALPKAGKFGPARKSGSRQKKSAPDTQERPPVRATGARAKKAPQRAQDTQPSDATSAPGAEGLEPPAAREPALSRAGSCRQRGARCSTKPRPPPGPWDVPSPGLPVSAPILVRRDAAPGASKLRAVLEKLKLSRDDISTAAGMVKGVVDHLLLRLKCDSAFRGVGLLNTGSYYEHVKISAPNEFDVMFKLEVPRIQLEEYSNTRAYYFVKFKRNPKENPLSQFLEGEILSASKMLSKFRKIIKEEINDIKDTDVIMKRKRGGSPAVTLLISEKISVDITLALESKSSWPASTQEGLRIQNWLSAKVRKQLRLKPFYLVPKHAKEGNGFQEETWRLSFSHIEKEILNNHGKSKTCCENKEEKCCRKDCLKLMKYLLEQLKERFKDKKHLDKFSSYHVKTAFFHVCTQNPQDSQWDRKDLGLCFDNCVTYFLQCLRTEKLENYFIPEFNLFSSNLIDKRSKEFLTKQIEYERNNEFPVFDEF
row,Compound,IC50 [µM]
1,"CCOc1cc(Cl)c(Cl)c2[nH]cc(-c3cn[nH]c3)c12 [Example 56, 6,7-Dichloro-4-ethoxy-3-(1H-pyrazol-4-yl)-1H-indole]",0.0826
2,"OCCOc1cc(Cl)c(Cl)c2[nH]cc(-c3cn[nH]c3)c12 [Example 57, 2-((6,7-Dichloro-3-(1H-pyrazol-4-yl)-1H-indol-4-yl)oxy)ethanol]",0.0352
3,"N#CCOc1cc(Cl)c(Cl)c2[nH]cc(-c3cn[nH]c3)c12 [Example 58, 2-[[6,7-Dichloro-3-(1H-pyrazol-4-yl)-1H-indol-4-yl]oxy]acetonitrile]",0.0158
4,"NC(=O)COc1cc(Cl)c(Cl)c2[nH]cc(-c3cn[nH]c3)c12 [Example 59, 2-[[6,7-Dichloro-3-(1H-pyrazol-4-yl)-1H-indol-4-yl]oxy]acetamide]",0.0242
5,"CC(C#N)Oc1cc(Cl)c(Cl)c2[nH]cc(-c3cn[nH]c3)c12 (stereo not shown) [Example 60, 2-[[6,7-Dichloro-3-(1H-pyrazol-4-yl)-1H-indol-4-yl]oxy]propanenitrile]",0.0855
6,"N#CCOc1cc(Cl)c(Cl)c2[nH]cc(-n3ccnc3)c12 [Example 61, 2-[(6,7-Dichloro-3-imidazol-1-yl-1H-indol-4-yl)oxy]acetonitrile]",0.0326
7,"OCCNc1cc(Cl)c(Cl)c2[nH]cc(-c3cn[nH]c3)c12 [Example 62, 2-[[6,7-Dichloro-3-(1H-pyrazol-4-yl)-1H-indol-4-yl]amino]ethanol]",0.0151
8,"N#CCNc1cc(Cl)c(Cl)c2[nH]cc(-c3cn[nH]c3)c12 [Example 63, 2-[[6,7-Dichloro-3-(1H-pyrazol-4-yl)-1H-indol-4-yl]amino] acetonitrile]",0.0273
9,"NC(=O)CNc1cc(Cl)c(Cl)c2[nH]cc(-c3cn[nH]c3)c12 [Example 64, 2-[[6,7-Dichloro-3-(1H-pyrazol-4-yl)-1H-indol-4-yl]amino] acetamide]",0.0486
10,"O=C(CO)Nc1cc(Cl)c(Cl)c2[nH]cc(-c3cn[nH]c3)c12 [Example 65, N-[6,7-Dichloro-3-(1H-pyrazol-4-yl)-1H-indol-4-yl]-2-hydroxy-acetamide]",0.0158
11,"CC(=O)Nc1cc(Cl)c(Cl)c2[nH]cc(-c3cn[nH]c3)c12 [Example 66, N-[6,7-Dichloro-3-(1H-pyrazol-4-yl)-1H-indol-4-yl]acetamide]",0.0349
12,"O[C@H]1C[C@@H](Nc2cc(Cl)c(Cl)c3[nH]cc(-c4cn[nH]c4)c23)C1 [Example 67, (cis)-3-((6,7-Dichloro-3-(1H-pyrazol-4-yl)-1H-indol-4-yl)amino)cyclobutanol]",0.0371
13,"N#CCOc1cc(Cl)c(F)c2[nH]cc(-c3cn[nH]c3)c12 [Example 70, 2-[[6-Chloro-7-fluoro-3-(1H-pyrazol-4-yl)-1H-indol-4-yl]oxy] acetonitrile]",0.0173
14,"NC(=O)COc1cc(Cl)c(F)c2[nH]cc(-c3cn[nH]c3)c12 [Example 71, 2-[[6-Chloro-7-fluoro-3-(1H-pyrazol-4-yl)-1H-indol-4-yl]oxy] acetamide]",0.0463
15,"N#CCOc1cc(Cl)c(F)c2[nH]cc(-n3ccnc3)c12 [Example 72, 2-[(6-Chloro-7-fluoro-3-imidazol-1-yl-1H-indol-4-yl)oxy]acetonitrile]",0.0772
16,"CS(=O)(=O)NCCn1cc(-c2cn[nH]c2)c2c(OCC#N)cc(Cl)c(Cl)c21 [Example 84, N-[2-[6,7-Dichloro-4-(cyanomethoxy)-3-(1H-pyrazol-4-yl)indol-1-yl]ethyl]methanesulfonamide]",0.0815
17,"CN1CCn2c(c(-c3cn[nH]c3)c3c(OCC#N)cc(Cl)c(Cl)c32)C1=O [Example 85, 2-((6,7-Dichloro-2-methyl-1-oxo-10-(1H-pyrazol-4-yl)-1,2,3,4-tetrahydropyrazino[1,2-a]indol-9-yl)oxy)acetonitrile]",0.0257
18,"CN1CCn2c(c(-c3cn[nH]c3)c3c(NCC#N)cc(Cl)c(Cl)c32)C1=O [Example 86, 2-[[6,7-Dichloro-2-methyl-1-oxo-10-(1H-pyrazol-4-yl)-3,4-dihydropyrazino[1,2-a]indol-9-yl]amino]acetonitrile]",0.0485
19,"N#CCOc1cc(Cl)c(Cl)c2c1c(-c1cn[nH]c1)c1n2CCNC1 [Example 88, 2-((6,7-Dichloro-10-(1H-pyrazol-4-yl)-1,2,3,4-tetrahydropyrazino[1,2-a]indol-9-yl)oxy)acetonitrile]",0.0219
20,"CCOc1cc(Cl)c(Cl)c2c1c(-c1cn[nH]c1)c1n2CCNC1 [Example 90, 6,7-Dichloro-9-ethoxy-10-(1H-pyrazol-4-yl)-1,2,3,4-tetrahydropyrazino[1,2-a]indole]",0.0587

# Further lines, results first:
row,IC50 [µM],Compound
1,0.0381,"O=C(O)CCc1[nH]c2c(Cl)c(Cl)ccc2c1-c1cn[nH]c1 [Example 54, 3-(6,7-Dichloro-3-(1H-pyrazol-4-yl)-1H-indol-2-yl) propanoic acid]"
2,0.0946,"O=C1CCn2c(c(-c3cn[nH]c3)c3ccc(Cl)c(Cl)c32)N1 [Example 55, 6,7-Dichloro-10-(1H-pyrazol-4-yl)-3,4-dihydro-1H-pyrimido[1,2-a]indol-2-one]"
3,0.0965,"O=C1CCc2c(-c3cn[nH]c3)c3ccc(Cl)c(Cl)c3n21 [Example 68, 7,8-Dichloro-4-(1H-pyrazol-4-yl)-2,3-dihydropyrrolo[1,2-a] indol-1-one]"
4,0.0449,"Clc1ccc2c(-c3cn[nH]c3)c3n(c2c1Cl)CCC(c1nn[nH]n1)C3 (stereo not shown) [Example 69, 3,4-Dichloro-10-(1H-pyrazol-4-yl)-8-(1H-tetrazol-5-yl)-6,7,8,9-tetrahydropyrido[1,2-a]indole]"
5,0.062,"OCCC1CCc2c(-c3cn[nH]c3)c3ccc(Cl)c(Cl)c3n2C1 (stereo not shown) [Example 73, 2-[3,4-Dichloro-10-(1H-pyrazol-4-yl)-6,7,8,9-tetrahydropyrido[1,2-a]indol-7-yl] ethanol]"
6,0.0847,"O=C1CCCN1C1CCc2c(-c3cn[nH]c3)c3ccc(Cl)c(Cl)c3n2C1 (stereo not shown) [Example 74, 1-[3,4-Dichloro-10-(1H-pyrazol-4-yl)-6,7,8,9-tetrahydropyrido[1,2-a]indol-7-yl]pyrrolidin-2-one]"
7,0.045,"CN1Cc2c(-c3cn[nH]c3)c3ccc(Cl)c(Cl)c3n2CC1=O [Example 75, 6,7-Dichloro-2-methyl-10-(1H-pyrazol-4-yl)-1,2-dihydropyrazino[1,2-a]indol-3(4H)-one]"
8,0.0452,"O=C1Cn2c(c(-c3cn[nH]c3)c3ccc(Cl)c(Cl)c32)CN1CCO [Example 76, 6,7-Dichloro-2-(2-hydroxyethyl)-10-(1H-pyrazol-4-yl)-1,2-dihydropyrazino[1,2-a]indol-3(4H)-one]"
9,0.0157,"O=C(O)C1CCCc2c(-c3cn[nH]c3)c3ccc(Cl)c(Cl)c3n2C1 (stereo not shown) [Example 77, 3,4-Dichloro-11-(1H-pyrazol-4-yl)-7,8,9,10-tetrahydro-6H-azepino[1,2-a]indole-7-carboxylic acid]"
10,0.0427,"OC1CCCc2c(-c3cn[nH]c3)c3ccc(Cl)c(Cl)c3n2C1 (stereo not shown) [Example 78, 3,4-Dichloro-11-(1H-pyrazol-4-yl)-7,8,9,10-tetrahydro-6H-azepino[1,2-a]indol-7-ol]"
11,0.0753,"O=C1Cn2c(c(-c3cn[nH]c3)c3ccc(Cl)c(Cl)c32)CCN1CCO [Example 79, 7,8-Dichloro-3-(2-hydroxyethyl)-11-(1H-pyrazol-4-yl)-2,3-dihydro-1H-[1,4]diazepino[1,7-a]indol-4(5H)-one]"
12,0.0818,"O=C1NC(CO)Cn2c1c(-c1cn[nH]c1)c1ccc(Cl)c(Cl)c12 (stereo not shown) [Example 80, 6,7-Dichloro-3-(hydroxymethyl)-10-(1H-pyrazol-4-yl)-3,4-dihydro-2H-pyrazino[1,2-a] indol-1-one]"
13,0.0223,"CN1CCOCC1CC(=O)N1CCn2c(c(-c3cn[nH]c3)c3ccc(Cl)c(Cl)c32)C1 (stereo not shown) [Example 81, 1-[6,7-Dichloro-10-(1H-pyrazol-4-yl)-3,4-dihydro-1H-pyrazino[1,2-a]indol-2-yl]-2-(4-methylmorpholin-3-yl)ethanone]"
14,0.046,"CC(=O)N1CCOC(CC(=O)N2CCn3c(c(-c4cn[nH]c4)c4ccc(Cl)c(Cl)c43)C2)C1 (stereo not shown) [Example 82, 2-(4-Acetylmorpholin-2-yl)-1-[6,7-dichloro-10-(1H-pyrazol-4-yl)-3,4-dihydro-1H-pyrazino[1,2-a]indol-2-yl]ethanone]"
15,0.0754,"CN1CCn2c(c(-c3cn[nH]c3)c3ccc(Cl)c(Cl)c32)C1=O [Example 83, 6,7-Dichloro-2-methyl-10-(1H-pyrazol-4-yl)-3,4-dihydropyrazino[1,2-a]indol-1-one]"
16,0.029,"CN1CCn2c(c(-c3cn[nH]c3)c3c(NCCO)cc(Cl)c(Cl)c32)C1=O [Example 87, 6,7-Dichloro-9-((2-hydroxyethyl)amino)-2-methyl-10-(1H-pyrazol-4-yl)-3,4-dihydropyrazino[1,2-a]indol-1(2H)-one]"
17,0.0112,"N#CCOc1cc(Cl)c(Cl)c2c1c(-c1cn[nH]c1)c1n2CCN(C(=O)CO)C1 [Example 89, 2-((6,7-Dichloro-2-(2-hydroxyacetyl)-10-(1H-pyrazol-4-yl)-1,2,3,4-tetrahydropyrazino[1,2-a]indol-9-yl)oxy)acetonitrile]"

# — patent US20230391786A1, “cGAS INHIBITORS” (Eli Lilly and Company, priority 2022, published 2023)
